Reference: patent US20110091470A1, “ANTI-FLT3 ANTIBODIES” (IMCLONE LLC, priority 2008, published 2011)

Experiments:
[1] = system: SEM-K2 cells; assay: Combination therapy with EB10 and MTX in SEM-K2 leukemia model; assay type: in vivo, NOD/SCID mice; details: monotherapy: EB10 10 mg/kg i.p. 2×/week; MTX 100 mg/kg Q7D
Method: One day prior to the start of treatment, i.v. inject 65, 7 weeks old, male NOD/SCID mice with 5×10^5 SEM-K2 cells suspended in PBS in a total volume of 200 μl. Drop from the study mice receiving less than 90% of cells intravenously.
Prepare MTX (Sigma Chemical, Cat # M9929) in USP Saline at a concentration of 10 mg/ml and dose Q7D for three cycles. […] Record mouse survival daily. Follow the mice for survival, and sacrifice any mouse displaying signs of morbidity/mortality; mark as dead on the day of sacrifice. End the study on day 168 and sacrifice any mice surviving to that point. Compare survival in the treatment groups by Log Rank Test between treatment groups.

[2] = biological target: ITD-mutant FLT3 expressed on BaF3-ITD cells; assay: cell-based or functional assay
ITD-mutant FLT3 expressed on BaF3-ITD cells, sequence (chain, as listed by the source mutant limits assumed, form in doubt): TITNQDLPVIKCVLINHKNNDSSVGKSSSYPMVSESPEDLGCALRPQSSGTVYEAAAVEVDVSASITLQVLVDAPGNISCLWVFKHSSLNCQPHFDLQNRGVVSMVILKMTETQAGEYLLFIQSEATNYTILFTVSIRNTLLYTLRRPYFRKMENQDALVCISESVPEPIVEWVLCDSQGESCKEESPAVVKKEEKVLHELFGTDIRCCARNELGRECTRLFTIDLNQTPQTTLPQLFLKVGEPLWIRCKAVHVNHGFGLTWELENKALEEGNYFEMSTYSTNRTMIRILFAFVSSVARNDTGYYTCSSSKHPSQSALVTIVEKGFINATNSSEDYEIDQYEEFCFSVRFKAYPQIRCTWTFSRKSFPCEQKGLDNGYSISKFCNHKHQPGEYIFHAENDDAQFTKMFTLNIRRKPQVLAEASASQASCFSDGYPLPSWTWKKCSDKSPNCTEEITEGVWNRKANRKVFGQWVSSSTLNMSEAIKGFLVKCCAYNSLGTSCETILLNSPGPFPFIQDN

[3] = biological target: wild-type FLT3 expressed on human leukemia cells (human) (UniProt P36888); assay: cell-based or functional assay
wild-type FLT3 expressed on human leukemia cells (human), sequence (P36888 27-993 limits assumed): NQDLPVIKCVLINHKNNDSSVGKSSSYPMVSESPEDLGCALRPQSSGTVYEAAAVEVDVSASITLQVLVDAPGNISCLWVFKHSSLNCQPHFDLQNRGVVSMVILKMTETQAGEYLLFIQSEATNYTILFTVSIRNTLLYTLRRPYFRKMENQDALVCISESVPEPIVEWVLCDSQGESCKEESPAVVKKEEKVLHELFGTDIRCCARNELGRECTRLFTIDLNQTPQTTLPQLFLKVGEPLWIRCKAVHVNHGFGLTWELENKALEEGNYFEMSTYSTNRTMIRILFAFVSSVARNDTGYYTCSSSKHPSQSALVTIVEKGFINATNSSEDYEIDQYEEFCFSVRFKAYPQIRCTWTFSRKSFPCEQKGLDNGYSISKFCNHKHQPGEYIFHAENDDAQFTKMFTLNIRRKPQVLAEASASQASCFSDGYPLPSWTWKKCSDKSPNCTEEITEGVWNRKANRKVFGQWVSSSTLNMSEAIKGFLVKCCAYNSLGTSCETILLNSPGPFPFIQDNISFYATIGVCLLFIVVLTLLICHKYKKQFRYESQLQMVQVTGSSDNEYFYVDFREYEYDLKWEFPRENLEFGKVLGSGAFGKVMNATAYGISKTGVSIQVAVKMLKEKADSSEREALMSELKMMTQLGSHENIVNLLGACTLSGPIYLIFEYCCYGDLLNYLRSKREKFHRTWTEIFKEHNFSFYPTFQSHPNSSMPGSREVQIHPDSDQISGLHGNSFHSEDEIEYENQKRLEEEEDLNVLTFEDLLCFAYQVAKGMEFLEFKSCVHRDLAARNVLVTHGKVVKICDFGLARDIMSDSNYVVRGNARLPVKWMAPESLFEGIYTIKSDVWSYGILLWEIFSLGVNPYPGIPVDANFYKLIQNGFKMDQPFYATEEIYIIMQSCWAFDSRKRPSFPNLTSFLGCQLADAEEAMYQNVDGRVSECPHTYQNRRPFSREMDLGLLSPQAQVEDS

[4] = system: Human Leukemia Cells; assay: ADCC 51Cr release assay with human NK cells; assay type: cell-based
[5] = system: BaF3-ITD cells; assay: FL-independent cell proliferation assay ([3H]-thymidine); assay type: cell-based
Method: Harvest EOL-1 cells and wash three times using serum-free RPMI 1640 medium. Culture cells in serum-free RPMI 1640 medium for 12 hours. For BaF3-ITD cells, perform the proliferation assay in RPMI 1640 medium supplemented with 10% FCS in the absence of exogenous FL. Reconstitute cells in serum-free AIM-V medium, plate in triplicates in a flat-bottomed 96-well plate (1×104/100 μl/well) and incubate with varying concentrations of antibodies (from 0 to 100 nM) and 30 ng/ml of FL at 37° C. for 68 hours. As a background control, incubate cells with medium alone in the absence of exogenous FL. Pulse cells with 0.25 μCi/well of [^3H]-thymidine for 4 hours. Harvest cells and measure cpm in a PerkinElmer Wallace-1205 Betaplate Liquid Scintillation Counter (Wellesley, Mass.). Calculate the percent inhibition of FL-induced proliferation for EOL-1 cells; deduce the cpm of background proliferation (i.e., cell samples not stimulated with FL) from the cpm of all experimental samples. Calculate percent inhibition using the following formula: [(cpm of untreated sample−cpm of antibody-treated sample)/cpm of untreated sample]×100%.

[6] = system: EOL-1 leukemia cells; assay: EOL-1 xenograft human AML leukemia model; assay type: in vivo, NOD-SCID mice
[7] = system: human leukemia cells (human CD45) in bone marrow; assay: Bone marrow engraftment of human leukemia cells; assay type: in vivo, mice; details: 500 μg/dose; versus control-IgG treated group
Method: Bone Marrow Engraftment of Human Leukemia Cells: Harvest bone marrow from the femurs of EB10-treated mice (500 μg/dose) and the control-IgG treated group at […]. Analyze cells for human CD45 by flow cytometry at 6 and 14 weeks post leukemia cell injection for the degree of tumor cell infiltration of bone marrow. Compare the degree of tumor cell infiltration of bone marrow using immunohistochemical staining with a fluorescence-labeled anti-human CD45 antibody.

[8] = system: BaF3-ITD cells; assay: BaF3-ITD leukemia model; assay type: in vivo, athymic (nu/nu) mice
Method: BaF3-ITD Leukemia Model: Initiate i.v. injection of groups of 10 athymic (nu/nu) mice with 5×10^4 BaF3-ITD cells. For statistic analysis, use the non-parametric one-tailed Mann-Whitney Rank Sum test (SigmaStat 2.03, SPSS, Inc., Chicago, Ill.). Start treatment one day after tumor injection. […] Treat the control group with purified human IgG (500 μg/dose). Monitor mice daily for survival.

[9] = system: MOLM-14 leukemia cells; assay: MOLM14 xenograft AML leukemia model; assay type: in vivo, mice
Method: MOLM14 Xenograft AML Leukemia Model: Irradiate mice with 200 rads with a gamma irradiator and then i.v. inject with 10×10^6 MOLM-14 leukemia cells. Start treatment one day after tumor injection. […] Treat the control group with […] USP saline. Monitor mice daily for survival. Compare survival in the treatment groups by Log Rank test.

[10] = system: SEM-K2 cells; assay: SEM-K2 xenograft human leukemia model; assay type: in vivo, NOD-SCID mice; details: 20 mg/kg i.p. two times weekly
[11] = system: Stat5; assay: Stat5 phosphorylation assay; details: EOL-1, wild type
[12] = 100 μg/dose i.p. three times weekly
[13] = 500 μg/dose i.p. three times weekly

Q: Which “mouse survival in comparison to the control group (in words)” value [1] does the source give for CN(Cc1cnc2nc(N)nc(N)c2n1)c1ccc(C(=O)N[C@@H](CCC(=O)O)C(=O)O)cc1 [MTX, methotrexate, reference compound] here?
A: The value was “prolonged survival”.

Q: For control IgG (antibody), which % Inhibition of FL-independent proliferation of BaF3-ITD cells at 100 nM [2] is on record?
A: The % Inhibition of FL-independent proliferation of BaF3-ITD cells at 100 nM was 2%.

Q: And the % Inhibition of FL-induced proliferation of EOL-1 cells at 100 nM [3]?
A: Its % Inhibition of FL-induced proliferation of EOL-1 cells at 100 nM is 0.4%.

Q: Which “ADCC response (in words)” value [4] does the source give for “EB10: recombinant human monoclonal antibody, full length IgG1κ targeting human FLT3; heavy chain SEQ ID NO 25, light chain SEQ ID NO 28” here?
A: The value was “strong ADCC response”.

Q: And the “% Inhibition of FL-independent proliferation (Mean ± Standard deviation)” value (“% Inhibition … (Mean ± Standard deviation)” for short) ([5]; 6 nM)?
A: The value was 9.6 ± 3.1%.

Q: What about the “% Inhibition … (Mean ± Standard deviation)” value ([5]; 13 nM) of the same molecule?
A: Its value is 13.0 ± 4.0%.

Q: And the “% Inhibition … (Mean ± Standard deviation)” value ([5]; 25 nM)?
A: Its value is 23.3 ± 0.6%.

Q: What about the “% Inhibition … (Mean ± Standard deviation)” value ([5]; 50 nM) of the same molecule?
A: Its value is 28.6 ± 3.1%.

Q: What about the “% Inhibition … (Mean ± Standard deviation)” value ([5]; 100 nM) of the same molecule?
A: The value was 29.2 ± 3.0%.

Q: And the “effect on survival (in words)” value ([6]; 10 μg)?
A: The value was “No effect”.

Q: And the mean survival time [6, 12]?
A: Its mean survival time is 52.8 ± 18.6 days.

Q: And the mean survival time ([6]; 250 μg/dose i.p. three times weekly)?
A: Its mean survival time is 55.3 ± 18.9 days.

Q: And the mean survival time [6, 13]?
A: The mean survival time was 62.3 ± 18.7 days.

Q: What about the “number of tumor cells in bone marrow” value [7] of the same molecule?
A: Its value is “decreased significantly”.

Q: And the mean survival time [8, 12]?
A: Its mean survival time is 66.5 ± 32.9 days.

Q: And the mean survival time [8, 13]?
A: Its mean survival time is 63.4 ± 44.6 days.

Q: And the median survival ([9]; 0.2 mg/kg i.p. two times weekly)?
A: Its median survival is 38.5 days.

Q: And the median survival ([9]; 10 mg/kg i.p. two times weekly)?
A: The median survival was 63 days.

Q: And the median survival [10]?
A: Its median survival is 108.5 days.

Q: And the “mouse survival in comparison to the control group (in words)” value [1]?
A: Its value is “significantly prolonged mouse survival”.

Q: What about the “Inhibition of Stat5 Phosphorylation (IC50)” value [11] of the same molecule?
A: Its value is “No effect”.

Q: “D4-3: recombinant human monoclonal antibody, full length IgG1κ targeting human FLT3; heavy chain SEQ ID NO 27, light chain SEQ ID NO 30 [Antibody D4-3]” was tested. Which “ADCC response (in words)” value [4] did it give?
A: The value was “less potent ADCC response”.

Q: And the median survival [10]?
A: Its median survival is 55.5 days.
